{"source": "paper PMC12396409", "about": "“Screening and hit evaluation of a microbial metabolite library against the pathogenic Plasmodium falciparum and Toxoplasma gondii parasites” (International Journal for Parasitology: Drugs and Drug …, 2025)", "key": {"[1]": {"test_system": "P. falciparum 3D7 parasites", "assay": "P. falciparum growth inhibition assay, 1-cycle (72 h treatment), SYBR DNA staining (library screen at 2 μg/mL and dose-response)", "assay_type": "cell-based, Plasmodium falciparum", "settings": "for activity at 2 µg/mL: Plasmodium falciparum, 3D7"}, "[2]": {"test_system": "P. falciparum 3D7 parasites", "assay": "P. falciparum growth inhibition assay, 2-cycle (120 h treatment), delayed-death screen and dose-response", "assay_type": "cell-based, Plasmodium falciparum", "settings": "for activity at 2 µg/mL: Plasmodium falciparum, 3D7"}, "[3]": {"test_system": "T. gondii RH strain (RH-Tub-eYFP) tachyzoites", "assay": "microbe, parasite or virus in culture", "assay_type": "cell-based, Toxoplasma gondii", "settings": "72 h; for percent parasite growth at 2 µg/mL: Toxoplasma gondii"}, "[4]": {"settings": "P. falciparum, 72 h, parasite screen 2 μg/mL, % growth, replicate 1"}, "[5]": {"settings": "P. falciparum, 72 h, parasite screen 2 μg/mL, % growth, replicate 2"}, "[6]": {"settings": "P. falciparum, 120 h, parasite screen 2 μg/mL, % growth, replicate 1"}, "[7]": {"settings": "P. falciparum, 120 h, parasite screen 2 μg/mL, % growth, replicate 2"}, "[8]": {"settings": "T. gondii, parasite screen 2 μg/mL, % growth, replicate 1"}, "[9]": {"settings": "T. gondii, parasite screen 2 μg/mL, % growth, replicate 2"}}, "note": "Read-outs that look alike come from different tables or passages of the source.", "data": [{"molecule": "CO[C@@H]1[C@@H](O[C@@H]2O[C@H](C)[C@@H](O[C@H]3C[C@@](C)(O)[C@@H](O)[C@H](C)O3)[C@H](N(C)C)[C@H]2O)[C@@H](CC=O)C[C@@H](C)[C@@H](O[C@H]2CC[C@H](N(C)C)[C@@H](C)O2)/C=C/C=C/C[C@@H](C)OC(=O)C[C@H]1O", "note": "[Spiramycin I, reference compound]", "values": [{"measurement": "1) Growth (%) at 72 h", "setting": "[1]; P. falciparum, 2 μg/mL, 72 h", "result": 71.72, "unit": "%"}, {"measurement": "Pf_72h_%Growth_Rep1", "setting": "[1]; [4]", "result": 60.09, "unit": "%"}, {"measurement": "Pf_72h_%Growth_Rep2", "setting": "[1]; [5]", "result": 83.34, "unit": "%"}, {"measurement": "2) Growth (%) at 120 h", "setting": "[2]; P. falciparum, 2 μg/mL, 120 h", "result": 11.98, "unit": "%"}, {"measurement": "Pf_120h_%Growth_Rep1", "setting": "[2]; [6]", "result": 15.80, "unit": "%"}, {"measurement": "Pf_120h_%Growth_Rep2", "setting": "[2]; [7]", "result": 8.16, "unit": "%"}, {"measurement": "3) Fold change (72 h/120 h)", "setting": "[2]; P. falciparum, growth at 72 h / growth at 120 h, 2 μg/mL", "result": 6.0}, {"measurement": "Tg_72h_%Growth_Rep1", "setting": "[3]; [8]", "result": 20.85, "unit": "%"}, {"measurement": "Tg_72h_%Growth_Rep2", "setting": "[3]; [9]", "result": 24.90, "unit": "%"}]}, {"molecule": "C=C1CC[C@H](O)C(C)(C)[C@@H]1CC/C(C)=C/CC/C(C)=C/Cc1c(O)cc(C)oc1=O", "note": "[Sartorypyrone D]", "values": [{"measurement": "Pf_72h_%Growth_Rep1", "setting": "[1]; [4]", "result": 81.94, "unit": "%"}, {"measurement": "Pf_72h_%Growth_Rep2", "setting": "[1]; [5]", "result": 66.06, "unit": "%"}, {"measurement": "Pf_120h_%Growth_Rep1", "setting": "[2]; [6]", "result": 72.77, "unit": "%"}, {"measurement": "Pf_120h_%Growth_Rep2", "setting": "[2]; [7]", "result": 7.76, "unit": "%"}, {"measurement": "Tg_72h_%Growth_Rep1", "setting": "[3]; [8]", "result": 121.13, "unit": "%"}, {"measurement": "Tg_72h_%Growth_Rep2", "setting": "[3]; [9]", "result": 88.47, "unit": "%"}]}, {"molecule": "COc1cc(C)c2c(c1)O[C@]1(C)Cc3cc4c(c(O)c3[C@H]2O1)C(=O)c1c(O)c(Cl)c(O)c(Cl)c1C4(C)C", "note": "[Bischloroanthrabenzoxocinone]", "values": [{"measurement": "Pf_72h_%Growth_Rep1", "setting": "[1]; library screen at 2 μg/mL, 72 h, % growth, replicate 1", "result": 16.72, "unit": "%"}, {"measurement": "Pf_72h_%Growth_Rep2", "setting": "[1]; library screen at 2 μg/mL, 72 h, % growth, replicate 2", "result": 45.58, "unit": "%"}, {"measurement": "Pf_120h_%Growth_Rep1", "setting": "[2]; library screen at 2 μg/mL, 120 h, % growth, replicate 1", "result": 23.08, "unit": "%"}, {"measurement": "Pf_120h_%Growth_Rep2", "setting": "[2]; library screen at 2 μg/mL, 120 h, % growth, replicate 2", "result": 23.09, "unit": "%"}, {"measurement": "Tg_72h_%Growth_Rep1", "setting": "[3]; library screen at 2 μg/mL, % growth, replicate 1", "result": 50.70, "unit": "%"}, {"measurement": "Tg_72h_%Growth_Rep2", "setting": "[3]; library screen at 2 μg/mL, % growth, replicate 2", "result": 75.56, "unit": "%"}]}, {"molecule": "COc1cc(C)c(C(=O)Oc2cc(C)c(C(=O)O)c(O)c2C)c(OC)c1C", "note": "[Diffractaic acid]", "values": [{"measurement": "activity at 2 µg/mL", "setting": "[1]; library screen at 2 μg/mL, 72 h, % growth, replicate 1, read-out: Pf_72h_%Growth_Rep1", "result": 80.1, "unit": "%"}, {"measurement": "activity at 2 µg/mL", "setting": "[1]; library screen at 2 μg/mL, 72 h, % growth, replicate 2, read-out: Pf_72h_%Growth_Rep2", "result": 79.9, "unit": "%"}, {"measurement": "activity at 2 µg/mL", "setting": "[2]; library screen at 2 μg/mL, 120 h, % growth, replicate 1, read-out: Pf_120h_%Growth_Rep1", "result": 91.2, "unit": "%"}, {"measurement": "activity at 2 µg/mL", "setting": "[2]; library screen at 2 μg/mL, 120 h, % growth, replicate 2, read-out: Pf_120h_%Growth_Rep2", "result": 81.2, "unit": "%"}, {"measurement": "percent parasite growth at 2 µg/mL", "setting": "[3]; library screen at 2 μg/mL, % growth, replicate 1, read-out: Tg_72h_%Growth_Rep1", "result": 133, "unit": "%"}, {"measurement": "percent parasite growth at 2 µg/mL", "setting": "[3]; library screen at 2 μg/mL, % growth, replicate 2, read-out: Tg_72h_%Growth_Rep2", "result": 97.5, "unit": "%"}]}, {"molecule": "C=Cc1cc(OC)c2c(c1)c(=O)oc1c2cc(OC)c2c(O)ccc([C@H]3O[C@H](C)[C@@H](O)[C@@H](N(C)C)[C@@H]3O)c21", "note": "[Deacetylravidomycin]", "values": [{"measurement": "Pf_72h_%Growth_Rep1", "setting": "[1]; P. falciparum, 72 h, screen at 2 μg/mL, replicate 1", "result": 3.21, "unit": "%"}, {"measurement": "Pf_72h_%Growth_Rep2", "setting": "[1]; P. falciparum, 72 h, screen at 2 μg/mL, replicate 2", "result": 5.95, "unit": "%"}, {"measurement": "Pf_120h_%Growth_Rep1", "setting": "[2]; P. falciparum, 120 h, screen at 2 μg/mL, replicate 1", "result": 1.87, "unit": "%"}, {"measurement": "Pf_120h_%Growth_Rep2", "setting": "[2]; P. falciparum, 120 h, screen at 2 μg/mL, replicate 2", "result": 7.89, "unit": "%"}, {"measurement": "Tg_72h_%Growth_Rep1", "setting": "[3]; T. gondii, screen at 2 μg/mL, replicate 1", "result": 3.62, "unit": "%"}, {"measurement": "Tg_72h_%Growth_Rep2", "setting": "[3]; T. gondii, screen at 2 μg/mL, replicate 2", "result": 4.01, "unit": "%"}]}, {"molecule": "Cc1cc(O)c2c(c1)C(=O)c1c(c(O)cc(O)c1-c1c(O)cc(O)c3c1C(=O)c1cc(C)cc(O)c1C3=O)C2=O", "note": "[Skyrin]", "values": [{"measurement": "activity at 2 µg/mL", "setting": "[1]; P. falciparum, 72 h, parasite screen 2 μg/mL, % growth, replicate 1, read-out: Pf_72h_%Growth_Rep1", "result": 80.4, "unit": "%"}, {"measurement": "activity at 2 µg/mL", "setting": "[1]; P. falciparum, 72 h, parasite screen 2 μg/mL, % growth, replicate 2, read-out: Pf_72h_%Growth_Rep2", "result": 120, "unit": "%"}, {"measurement": "activity at 2 µg/mL", "setting": "[2]; P. falciparum, 120 h, parasite screen 2 μg/mL, % growth, replicate 1, read-out: Pf_120h_%Growth_Rep1", "result": 75.2, "unit": "%"}, {"measurement": "activity at 2 µg/mL", "setting": "[2]; P. falciparum, 120 h, parasite screen 2 μg/mL, % growth, replicate 2, read-out: Pf_120h_%Growth_Rep2", "result": 137, "unit": "%"}, {"measurement": "percent parasite growth at 2 µg/mL", "setting": "[3]; T. gondii, parasite screen 2 μg/mL, % growth, replicate 1, read-out: Tg_72h_%Growth_Rep1", "result": 114, "unit": "%"}, {"measurement": "percent parasite growth at 2 µg/mL", "setting": "[3]; T. gondii, parasite screen 2 μg/mL, % growth, replicate 2, read-out: Tg_72h_%Growth_Rep2", "result": 84.9, "unit": "%"}]}, {"molecule": "NC(=O)c1cccc2nc3ccccc3nc12", "note": "[BIA-O1527]", "values": [{"measurement": "Pf_72h_%Growth_Rep1", "setting": "[1]; P. falciparum 3D7, 72 h, parasite screen at 2 μg/mL, % growth, replicate 1", "result": 73.74, "unit": "%"}, {"measurement": "Pf_72h_%Growth_Rep2", "setting": "[1]; P. falciparum 3D7, 72 h, parasite screen at 2 μg/mL, % growth, replicate 2", "result": 112.20, "unit": "%"}, {"measurement": "Pf_120h_%Growth_Rep1", "setting": "[2]; P. falciparum 3D7, 120 h, parasite screen at 2 μg/mL, % growth, replicate 1", "result": 104.27, "unit": "%"}, {"measurement": "Pf_120h_%Growth_Rep2", "setting": "[2]; P. falciparum 3D7, 120 h, parasite screen at 2 μg/mL, % growth, replicate 2", "result": 111.59, "unit": "%"}, {"measurement": "Tg_72h_%Growth_Rep1", "setting": "[3]; T. gondii, parasite screen at 2 μg/mL, % growth, replicate 1", "result": 111.76, "unit": "%"}, {"measurement": "Tg_72h_%Growth_Rep2", "setting": "[3]; T. gondii, parasite screen at 2 μg/mL, % growth, replicate 2", "result": 91.86, "unit": "%"}]}, {"molecule": "Pyripyropene A", "values": [{"measurement": "Pf_72h_%Growth_Rep1", "setting": "[1]; [4]", "result": 79.94, "unit": "%"}, {"measurement": "Pf_72h_%Growth_Rep2", "setting": "[1]; [5]", "result": 110.00, "unit": "%"}, {"measurement": "Pf_120h_%Growth_Rep1", "setting": "[2]; [6]", "result": 67.48, "unit": "%"}, {"measurement": "Pf_120h_%Growth_Rep2", "setting": "[2]; [7]", "result": 119.28, "unit": "%"}, {"measurement": "Tg_72h_%Growth_Rep1", "setting": "[3]; [8]", "result": 125.43, "unit": "%"}, {"measurement": "Tg_72h_%Growth_Rep2", "setting": "[3]; [9]", "result": 86.00, "unit": "%"}]}]}
